# Measurements as given in article PMC3167814, “Relationships between Membrane Binding, Affinity and Cell Internalization Efficacy of a Cell-Penetrating Peptide: Penetratin as a Case Study” (PLoS ONE, 2011).
# Key:
# [1] = test system: GAG-deficient CHO-pgsA745 cells (GAG^neg)
# Procedure: (§1) As already reported, the quantity or concentration of internalized and membrane-bound penetratin could be differentiated and measured by MALDI mass spectrometry, [33], [34]. […] Using the reported protocol, the amount of internalized penetratin was quantified in one million cells that were incubated with 1 or 10 µM penetratin for one hour. After washing steps, the extracellular membrane-bound peptide was degraded by trypsin digestion, [33], [34] so that only the internalized peptide was quantified. […] The extracellular concentration could not be lowered further because of the lack of sensitivity of the MALDI-MS method for accurate measurements of sub-picomole quantities of penetratin.
# (§2) Wild type Chinese Hamster Ovary CHO-K1 cells (WT), xylosetransferase- or GAG-deficient CHO-pgsA745 [59] cells (GAG^neg) and sialic acid deficient CHO-lec2 [60] cells (SA^neg) were cultured in Dulbecco's modified Eagle's medium (DMEM) supplemented with 10% fetal calf serum (FCS), penicillin (100,000 IU/L), streptomycin (100,000 IU/L), and amphotericin B (1 mg/L) in a humidified atmosphere containing 5% CO2 at 37°C.
# (§3) Cellular uptake was quantified using the method described by Burlina et al.. In this protocol, the studied peptide bears a tag composed of four glycine residues together with a biotin moiety for purification purposes. After one-hour incubation with the peptide and washing, a protease is added (0.05% trypsin in Tris-HCl 100 mM pH 7.5) in order to detach the cells and to degrade the membrane-bound peptide. This avoids overestimating the quantity of internalized peptide due to the presence of peptides attached to the outer leaflet of the membrane. The cells are then lysed (0.3% Triton) and boiled, and the cell lysate is incubated with streptavidin-coated magnetic beads to extract the peptide from the lysate. For membrane-bound peptide quantification, washings but no protease digestion was done and the cells were directly lysed. The peptides are eluted from the streptavidin-coated magnetic beads with a α-cyano-4-hydroxycinnamic acid matrix and spotted on the MALDI plate. Mass spectrometry is not a quantitative method per se, therefore an internal standard is added to the lysis solution. […] This allows the absolute quantification of internalized and membrane-bound peptide. […] The experiments were repeated at least three times independently.
# [2] = test system: Wild type Chinese Hamster Ovary CHO-K1 cells (WT)
# Procedure: as §1, §2, §3
# [3] = test system: sialic acid deficient CHO-lec2 cells (SA^neg)
# Procedure: as §1, §2, §3
# [4] = test system: GAG^neg cell membrane fragments; assay: PWR, lipid bilayer composed of cell membrane fragments; format: binding, Chinese Hamster; conditions: GAG^neg membrane fragments in egg PC planar bilayer; PWR shifts on incremental peptide addition, hyperbolic fit, apparent Kd; repeated 3 times
# Description: (§4) Homogenized membranes were obtained by osmotic and mechanical disruption of cells. A method to deposit cell membrane fragments on the PWR cell sample was developed as follows. The deposition of a membrane composed of cell membrane fragments into the PWR resonator led to spectral changes, namely large positive spectral shifts for both p- and s-polarizations relative to the buffer spectrum (Figure 2, panels A and B) indicating the immobilization of a significant amount of mass on the sensor surface. It should be noted that the shifts obtained for p-pol were considerably larger than the ones obtained for s-pol (s/p ratio about 0.7).
# (§5) Regarding the direction of the PWR spectral shifts, two types of behavior were observed depending on the membrane composition: 1) in the case of GAG^neg cells, penetratin led to a two phase binding process with negative shifts followed by positive shifts (for both polarizations) which equilibrated after certain concentrations; 2) in the case of WT and SA^neg cells, penetratin led to a single binding process with positive shifts for both polarizations (see panels C and D in Figure 2 for penetratin interaction with WT cell membranes and Table 1 for the direction and magnitude of the spectral shifts). […] Penetratin affinity to lipid bilayers and membrane fragments could be calculated using PWR by measuring the resonance minimum position shifts upon incremental addition of peptide to the cell sample [39]. […]
# (§6) The kinetics of penetratin interaction with the membrane was determined by following the shift in the resonance minimum position as a function of time for a peptide concentration slightly above the Kd value. […] Rate constants were determined for the second part of the signal (the resonance angle increase) and varied upon membrane composition (Figure 2 and Table 3). […]
# (§7) The sensitivity factor (Sf), a measure of the sensitivity of the instrument for the s- pol relative to p-pol ( [drawing 2] ), necessary to determine the mass and anisotropy axes has been determined, for the prism used in those experiments, to be 1.35 [46].
# [5] = test system: SA^neg cell membrane fragments; assay: as above; format: binding, Chinese Hamster; conditions: SA^neg membrane fragments in egg PC planar bilayer; PWR shifts on incremental peptide addition, hyperbolic fit, apparent Kd; repeated 3 times
# Description: as §4, §5, §6, §7
# [6] = test system: WT cell membrane fragments; assay: as above; format: binding, Chinese Hamster; conditions: WT membrane fragments in egg PC planar bilayer; PWR shifts on incremental peptide addition, hyperbolic fit, apparent Kd; repeated 3 times
# Description: as §4, §5, §6, §7
# [7] = PWR, synthetic lipid model membrane; format: binding; conditions: hyperbolic fit, apparent Kd, repeated 3 times
# Description: To get some insight into the role of the lipid component in the cell surface regarding penetratin interaction, lipid model systems composed of varied lipid composition were used. Both zwitterionic (egg PC), anionic (egg PG -phosphatidylglycerol-and egg PC/DOPG -phosphatidylglycerol/dioleoylphosphatidylglycerol-) and lipids with propensity to form negative membrane curvature (egg PC/DOPE -dioleoylphosphatidylethanolamine-) were chosen in order to understand the role of electrostatic interactions and membrane curvature in the interaction of penetratin with the lipid bilayer. For all the lipid systems, penetratin interaction led to spectral shifts in both the p- and s-polarisation. As in the case of cell membrane fragments studies, presented above, two distinct responses were observed depending on the membrane composition: 1) in the case of egg PC and egg PC/DOPE, a two phase binding process with negative shifts followed by positive shifts (for both polarizations) which equilibrated after certain concentrations were observed; 2) in the case of egg PG, egg PC/POPG (1-palmitoyl-2-oleoyl-sn-glycero-3-phospho-(1′-rac-glycerol)), penetratin led to a single binding process with positive shifts for both polarizations (see Table 1 for the direction and magnitude of the spectral shifts). […] The electrostatic interaction played an important role in penetratin interaction with the membrane, but was not the only relevant factor, the shape of the lipid headgroup and/or the lipid curvature seemed to also play a key role in (this will be further discussed below).
# For the membrane interaction where two binding processes were observed, as in the case of egg PC, egg PC/DOPE, the first binding was associated with negative spectral shifts for both p- and s-polarizations, which corresponded mainly to mass changes (90–100%). […] In the case where only one binding event was observed (egg PG and egg PC/DOPG) mass changes again dominated the spectral changes (85 to 91%) (Table 5).
# Here, the graphical analysis method was employed.
# as §7
# [8] = 1 µM extracellular biotin-Gly4-tagged penetratin, one million cells, 1 h incubation, washings, trypsin degradation of membrane-bound peptide, MALDI-TOF MS with deuterated internal standard, repeated at least three times
# [9] = 1 µM extracellular, 1 h, from internalized amount provided a cell volume of 1 pL
substance,measurement,setting,value
"H-RQIKIWFQNRRMKWKK-NH2 [penetratin, Penetratin, positively charged cell-penetrating peptide derived from the third helix of the homeodomain of Antennapedia]",internalized peptide quantity,[1]; [8],about 0.25 pmole
same,intracellular penetratin concentration,[1]; [9],about 0.25 µM
same,internalized peptide quantity,[2]; [8],about 0.25 pmole
same,intracellular penetratin concentration,[2]; [9],about 0.25 µM
same,internalized peptide quantity,[3]; [8],about 0.25 pmole
same,intracellular penetratin concentration,[3]; [9],about 0.25 µM
same,Kd,[4],2000 ± 600 nM
same,Kd,[5],300 ± 40 nM
same,Kd,[6],10 ± 3 nM
same,Kd,[7]; Egg PC bilayer,28000 ± 2000 nM
same,Kd,[7]; Egg PC/DOPE bilayer,500 ± 10 nM
same,Kd,[7]; Egg PC/DOPG bilayer,1400 ± 30 nM
same,Kd,[7]; Egg PG bilayer,300 ± 20 nM
